According to article PMC6112376, “Comprehensive Analyses and Prioritization of Tox21 10K Chemicals Affecting Mitochondrial Function by in-Depth Mechanistic Studies” (Environmental Health Perspectives, 2018):
Read-outs that look alike come from different tables or passages of the source.

Experiments:
[1] = test system: HeLa cells expressing YFP-Parkin; experiment: Parkin translocation assay; assay type: cell-based, human
hNSC = experiment: MMP assay in human neural stem cells (hNSC); assay type: cell-based; conditions: Homo sapiens, Neural stem cell, 1 h, read-out: hNSC IC50 (MMP)
[2] = test system: Caenorhabditis elegans (Bristol N2); conditions: Bristol N2 (wild type), Caenorhabditis elegans, in vivo
HepG2 cells [3] = experiment: Intracellular ATP content (cell viability) assay; assay type: cell-based, human; conditions: Homo sapiens, HepG2, 40 h
HepG2 cells [4] = conditions: cited from earlier work; for IC50: read-out: MMP assays IC50 (µM) qHTS-HepG2
[5] = test system: Nrf2/ARE (ARE-bla HepG2 cells); experiment: ARE β-lactamase reporter gene assay; assay type: cell-based, human; conditions: Homo sapiens, read-out: ARE (HepG2) EC50
[6] = test system: Caenorhabditis elegans (Bristol N2); experiment: C. elegans larval development and growth assay; conditions: Caenorhabditis elegans, read-out: LEC EXT: lowest effect concentration for extinction, a measure of nematode size
rat primary hepatocytes [7] = test system: rat primary hepatocytes
rat primary hepatocytes [8] = experiment: MMP assay in rat primary hepatocytes; conditions: Rattus norvegicus, Hepatocyte
[9] = test system: isolated rat liver mitochondria; experiment: Oxygen consumption, Clark-type oxygen electrode; assay type: biochemical
HepG2 cells [10] = experiment: ROS-Glo hydrogen peroxide (ROS) assay; assay type: cell-based, human; conditions: Homo sapiens, HepG2, 2 h, read-out: ROS (HepG2) EC50
[11] = test system: Caenorhabditis elegans strain PE255; conditions: PE255 [sur-5::luc+::gfp; rol-6(su1006)], Caenorhabditis elegans, in vivo
[12] = test system: Caenorhabditis elegans strain PE255; experiment: In vivo C. elegans ATP status assay; conditions: Caenorhabditis elegans, read-out: LEC LUM: lowest effect concentration for luminescence, a measure of nematode ATP content
HepG2 cells [13] = experiment: cells; conditions: Homo sapiens; for Emax: HepG2, read-out: MMP assays efficacy (%) HepG2
[14] = test system: p53 (p53-bla HCT-116 cells); experiment: p53 β-lactamase reporter gene assay; assay type: cell-based, human; conditions: 16 h incubation; mean±SD of three experiments
[15] = read-out: ATP (HepG2, galactose) IC50
[16] = read-out: ATP (HepG2, glucose) IC50
[17] = 1 h, read-out: Rat hepatocytes IC50 (MMP)
[18] = read-out: MMP assays IC50 (µM) Rat Hepatocytes
[19] = HepG2, 1 h, read-out: HepG2 IC50 Galactose (MMP)
[20] = HepG2, 1 h, read-out: HepG2 IC50 Glucose (MMP)
[21] = HepG2, read-out: MMP assays IC50 (µM) HepG2

## CC(C)(C)c1cc([N+](=O)[O-])cc([N+](=O)[O-])c1O [Dinoterb]
[1]
  Parkin recruitment: Active
[1]; 3 h
  Parkin translocation into mitochondria (in words): patterns similar to antimycin A and FCCP
hNSC
  IC50: 10.1 µM
[2]
  LEC (lowest effect concentration), larval growth assay: < 10 µM
HepG2 cells [3]; [15]
  IC50: 22.3 µM
HepG2 cells [3]; [16]
  IC50: 19.7 µM
HepG2 cells [4]
  MMP assays efficacy (%) qHTS-HepG2: -95±8%
  IC50: 0.48 µM
[5]; HepG2, 16 h incubation, mean±SD of three experiments
  EC50: 0.52 ± 0.15 µM
[6]
  minimal effective concentration: 5 µM
Rat primary hepatocytes [7]
  MMP assays efficacy (%) Rat Hepatocytes: -88±9%
  Rat hepatocytes (efficacy) (MMP): 2.39±1.02 ( −105±23.8 ) %
Rat primary hepatocytes [8]; [17]
  IC50: 2.39 µM
Rat primary hepatocytes [8]; [18]
  IC50: 0.76 ± 0.45 µM
[9]
  Potential Mechanism: Uncoupler at low concentrations (0.032-0.8 µM), and Uncoupler + inhibitor at high concentrations (4-100 µM)
  effect on mitochondrial respiration (in words): effects similar to those of FCCP
  uncoupler effect at (concentration) in the oxygen consumption assay: 0.032 µM
[9]; 0.0064 µM
  I-ADP, % of control (O2 consumption rate): 103 (38.3) % of control
  I-sub, % of control (O2 consumption rate): 92 (9.9) % of control
  II-ADP, % of control (O2 consumption rate): 105 (66) % of control
  II-sub, % of control (O2 consumption rate): 99 (18.4) % of control
[9]; 0.032 µM
  I-ADP, % of control (O2 consumption rate): 95 (41.5) % of control
  I-sub, % of control (O2 consumption rate): 135 (17.7) % of control
  II-ADP, % of control (O2 consumption rate): 97 (65.4) % of control
[9]; 0.16 µM
  I-ADP, % of control (O2 consumption rate): 113 (49.2) % of control
  I-sub, % of control (O2 consumption rate): 206 (27.0) % of control
  II-ADP, % of control (O2 consumption rate): 106 (72.0) % of control
  II-sub, % of control (O2 consumption rate): 264 (55.1) % of control
[9]; 0.8 µM
  I-ADP, % of control (O2 consumption rate): 148 (64.4) % of control
  I-sub, % of control (O2 consumption rate): 486 (63.7) % of control
  II-ADP, % of control (O2 consumption rate): 102 (68.8) % of control
  II-sub, % of control (O2 consumption rate): 367 (76.8) % of control
[9]; 4 µM
  I-ADP, % of control (O2 consumption rate): 100 (43.7) % of control
  I-sub, % of control (O2 consumption rate): 320 (41.9) % of control
  II-ADP, % of control (O2 consumption rate): 58 (39.5) % of control
  II-sub, % of control (O2 consumption rate): 211 (44.0) % of control
[9]; 20 µM
  I-ADP, % of control (O2 consumption rate): 69 (30.1) % of control
  I-sub, % of control (O2 consumption rate): 239 (31.3) % of control
  II-ADP, % of control (O2 consumption rate): 11 (7.7) % of control
  II-sub, % of control (O2 consumption rate): 36 (7.6) % of control
[9]; 100 µM
  I-ADP, % of control (O2 consumption rate): 10 (4.9) % of control
  I-sub, % of control (O2 consumption rate): 23 (5.0) % of control
  II-ADP, % of control (O2 consumption rate): 5 (3.1) % of control
  II-sub, % of control (O2 consumption rate): 13 (4.4) % of control
HepG2 cells [10]
  EC50: 13.2 µM
[11]
  LEC (lowest effect concentration), ATP assay: < 10 µM
  inhibitory effect at (concentration) on ATP content in the C. elegans assay: 1.0 µM
[12]
  minimal effective concentration: 1 µM
HepG2 cells [13]; [19]
  IC50: 7.19 µM
HepG2 cells [13]; [20]
  IC50: 7.23 µM
HepG2 cells [13]; [21]
  IC50: 2.24 µM
HepG2 cells [13]
  Emax: 101%

## O=C1c2c(O)ccc([N+](=O)[O-])c2C(=O)c2c([N+](=O)[O-])ccc(O)c21 [1,8-Dihydroxy-4,5-dinitroanthraquinone]
[1]
  Parkin recruitment: Inactive
hNSC
  IC50: 3 µM
HepG2 cells [3]; [15]
  IC50: 17 µM
HepG2 cells [3]; [16]
  IC50: 27 µM
HepG2 cells [4]
  MMP assays efficacy (%) qHTS-HepG2: -86±5%
  IC50: 0.07 ± 0.04 µM
[14]
  p53 (HCT-116) EC50: Inactive
[5]; HepG2, 16 h
  EC50: 2.43 ± 1.38 µM
[6]
  minimal effective concentration: 75 µM
Rat primary hepatocytes [7]
  MMP assays efficacy (%) Rat Hepatocytes: -79±33%
  Rat hepatocytes (efficacy) (MMP): 16.09±6.94 ( −119±28.1 ) %
Rat primary hepatocytes [8]; [17]
  IC50: 16.1 µM
Rat primary hepatocytes [8]; [18]
  IC50: 5.69 ± 2.62 µM
[9]
  Potential Mechanism: Uncoupler at low concentrations (0.8 - 4µM), and uncoupler + inhibitor at high concentrations (20-100 µM)
[9]; 0.16 µM
  I-ADP, % of control (O2 consumption rate): 106 (52.0) % of control
  I-sub, % of control (O2 consumption rate): 104 (16.8) % of control
  II-ADP, % of control (O2 consumption rate): 98 (75.7) % of control
  II-sub, % of control (O2 consumption rate): 98 (29.9) % of control
[9]; 0.8 µM
  I-ADP, % of control (O2 consumption rate): 102 (50.0) % of control
  I-sub, % of control (O2 consumption rate): 139 (22.3) % of control
  II-ADP, % of control (O2 consumption rate): 102 (78.8) % of control
  II-sub, % of control (O2 consumption rate): 132 (40.5) % of control
[9]; 4 µM
  I-ADP, % of control (O2 consumption rate): 119 (58.8) % of control
  I-sub, % of control (O2 consumption rate): 327 (52.6) % of control
  II-ADP, % of control (O2 consumption rate): 104 (80.3) % of control
  II-sub, % of control (O2 consumption rate): 206 (63.1) % of control
[9]; 20 µM
  I-ADP, % of control (O2 consumption rate): 95 (47.0) % of control
  I-sub, % of control (O2 consumption rate): 311 (50.0) % of control
  II-ADP, % of control (O2 consumption rate): 40 (30.9) % of control
  II-sub, % of control (O2 consumption rate): 108 (33.0) % of control
[9]; 100 µM
  I-ADP, % of control (O2 consumption rate): 35 (10.0) % of control
  I-sub, % of control (O2 consumption rate): 84 (10.0) % of control
  II-ADP, % of control (O2 consumption rate): 49 (17.8) % of control
  II-sub, % of control (O2 consumption rate): 141 (20.8) % of control
HepG2 cells [10]
  EC50: 34.3 µM
[11]
  LEC (lowest effect concentration), ATP assay: ≤ 10 µM
[12]
  minimal effective concentration: 10 µM
HepG2 cells [13]; [19]
  IC50: 2.81 µM
HepG2 cells [13]; [20]
  IC50: 1.79 µM
HepG2 cells [13]; [21]
  IC50: 0.45 µM
HepG2 cells [13]
  Emax: 86%
